Reference: US10689378B2, “Triazolopyridine compounds and uses thereof” (Novartis AG, priority 2016, dated 2020)
Like-named read-outs stand apart in the source and are kept apart here.

Key:
[1] = tested on: H3K27 methylation in G401 cell; assay: ELISA (H3K27 methylation) assay in G401 cells; assay type: cell-based, human; settings: Homo sapiens
Procedure: Compounds of the present invention were assessed for their ability to inhibit PRC2 activity in a pentameric complex of EZH2, SUZ12, EED, Rbap48 and AEBP in biochemical assays. The ability of compounds of the present invention to inhibit cellular activity of PRC2 was assessed by analysing histone H3 lysine 27 methylation in human cell lines. The ability of compounds of the present invention to inhibit cancers was derived from their ability to modulate activity in human cancer cell lines bearing specific dependence to PRC2 activity to maintain cancerous growth.
ELISA (H3K27 Methylation) Assay
Representative compounds of the present invention were serially and separately diluted 3-fold in DMSO to obtain a total of eight or twelve concentrations. Then the compounds were added to G401 cell cultured in 384-well plate at 1:500 dilution to obtain the highest concentration of 20 μM. The cells were further cultured for 48 h before ELISA procedure.
Histone extraction: Cells, in 384-well plate, were washed with PBS (10×PBS buffer (80 g NaCl (Sigma, S3014), 2 g KCl (Sigma, 60128), 14.4 g Na2HPO4 (Sigma, S5136), 2.4 g KH2PO4 (Sigma, P9791) to 1 L water, pH to 7.4) and lysed with the addition of lysis buffer (0.4N HCl; 45 μL per well). The plate was gently agitated at 4° C. for 30 min. The cell lysate was neutralized with neutralization buffer (0.5 M sodium phosphate dibasic, pH 12.5, 1 mM DTT; 36 μL per well). The plate was agitated to ensure the lysates were well mixed prior to the ELISA protocol.
ELISA protocol: Cell lysates were transferred to the wells of a 384-well plate and the final volume was adjusted to 50 μL per well with PBS. The plate was sealed, centrifuged at 2,000 rpm for 2 min and incubated at 4° C. for about 16 h. The plate was washed with TBST buffer (1×TBS (10×TBS: 24.2 g Tris (Sigma, T6066), 80 g NaCl (Sigma, S3014) to 1 L of water and adjust pH to 7.6 with HCl) with 0.1% Tween-20). Blocking buffer (TBST, 5% BSA; 50 μL per well) was added and the plate was incubated for 1 h at rt. The blocking buffer was removed and primary antibody was added (30 μL per well). The following dilutions were performed with blocking buffer: for anti-H3K27me3 antibody (Cell Signaling Technology, #9733), dilution was 1:1000; for anti-H3K27me2 antibody (Cell Signaling Technology, #9288), dilution was 1:100; for anti-H3 antibody (Abcam, Cat #24834), dilution was 1:1000. The primary antibody was incubated in the plate at rt for 1 h. The wells were washed with TBST and incubated with secondary antibody for 1 h at rt. For secondary antibodies, the following dilutions were carried out with blocking buffer: anti-rabbit antibody (Jackson ImmunoResearch, #111-035-003), dilution was 1:2000; and anti-mouse antibody (Cell signaling technology, #7076), dilution was 1:1000. After 1 h of incubation at rt, the wells were washed with TBST. ECL substrate (Pierce, #34080) was added at 30 μL per well and the plates were centrifuged at 2,000 rpm for 2 min. The signal was read using a PerkinElmer Envision Reader. The H3K27 methylation readouts were normalized using H3 signal and then percentage inhibition was calculated against the samples treated with DMSO. The data were then fit to a dose response curve using the program Helios to get the IC50 values of the test compound.

EED (1-441)-His protein = biological target: T1, EED (1-441)-His protein (Homo sapiens, UniProt O75530); assay: EED-H3K27Me3 peptide competition binding assay by AlphaScreen
T1 construct: 30 nM EED (1-441)-His protein
Procedure: EED-H3K27Me3 Peptide Competition Binding Assay by AlphaScreen (α-Screen)
To assess the compounds' potency in the EED-H3K27Me3 competition binding assay, compounds were serially diluted 3-fold in DMSO to obtain a total of twelve concentrations. Then compounds at each concentration (75 nL of each) were transferred by Mosquito into a 384-well Perkin Elmer ProxiPlate 384 plus plates. 8 uL of solutions containing 30 nM EED (1-441)-His protein and 15 nM biotin-H3K27Me3 (19-33) peptide in the buffer (25 mM HEPES, pH 8, 0.02% Tween-20, 0.5% BSA) were added to the wells and then incubated with compound for 20 min. AlphaScreen detection beads mix was prepared immediately before use by mixing nickel chelate acceptor beads and streptavidin donor beads in a 1:1 ratio (Perkin Elmer, Product No. 6760619C/M/R) into the buffer described above. Then 4 μL of detection beads mix was added to the plate and incubate in the dark at the rt for 1 h. The final concentration of donor and acceptor beads was 10 μg/mL for each. Plates were read on EnVision (PerkinElmer) using the AlphaScreen setting adapted for optimal signal detection with a 615 nm filter, after sample excitation at 680 nm. The emission signal at 615 nm was used to quantify compounds inhibition. AlphaScreen signals were normalized based on the reading coming from the positive (maximum signal control) and negative controls (minimum signal control) to give percentage of activities left. The data were then fit to a dose response equation using the program Helios (Novartis) to get the IC50 values. Helios is a Novartis in-house assay data analysis software using the methods described by Normolle, D. P., Statistics in Medicine, 12:2025-2042 (1993); Formenko, I. et al, Computer Methods and Programs in Biomedicine, 82, 31-37 (2006); Sebaugh, J. L., Pharmaceutical Statistics, 10:128-134 (2011); Kelly, C. et al., Biometrics, 46(4):1071-1085 (1990); and Kahm, M. et al., Journal of Statistical Software, 33 (7): (2010) (grofit: Fitting Biological Growth Curves with R, pages 1-21, available at http://www.jstatsoft.org/).

[2] = G-401, read-out: (c) IC50, ELISA Qualified
[3] = read-out: (a) IC50, EED Alphascreen binding Qualified
[4] = G-401, H3K27 methylation ELISA, read-out: (c) IC50 ELISA Qualified
[5] = EED-H3K27Me3 peptide competition, AlphaScreen, read-out: (a) IC50 EED Alphascreen binding Qualified

T1 sequence (O75530 whole entry): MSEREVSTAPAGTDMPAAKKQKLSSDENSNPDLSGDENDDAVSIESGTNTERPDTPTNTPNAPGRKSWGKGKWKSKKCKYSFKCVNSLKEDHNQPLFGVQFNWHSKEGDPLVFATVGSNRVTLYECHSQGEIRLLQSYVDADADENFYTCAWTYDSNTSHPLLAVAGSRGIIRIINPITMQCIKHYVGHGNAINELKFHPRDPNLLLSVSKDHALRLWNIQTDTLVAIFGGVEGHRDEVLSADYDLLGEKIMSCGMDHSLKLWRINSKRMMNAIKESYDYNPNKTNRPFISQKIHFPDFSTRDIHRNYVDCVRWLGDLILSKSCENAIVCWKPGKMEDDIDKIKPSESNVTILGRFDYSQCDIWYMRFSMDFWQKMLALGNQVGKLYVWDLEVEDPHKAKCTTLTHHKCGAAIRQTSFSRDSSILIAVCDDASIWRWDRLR

IC50 [1, 2] [nM] | IC50 (EED (1-441)-His protein; [3]) [nM] | IC50 [1, 4] [nM] | IC50 (EED (1-441)-His protein; [5]) [nM] | Structure (SMILES)
4110 | 1980 |  |  | COc1c(F)cc(F)cc1CNc1ccc(-c2ccc(CN(C)C)cc2)c2nncn12 [Example 146, N-(3,5-difluoro-2-methoxybenzyl)-8-(4-((dimethylamino)methyl)phenyl)-[1,2,4]triazolo[4,3-a] pyridin-5-amine]
223 | 168 |  |  | COc1cc(F)ccc1CNc1ccc(-c2ccc(S(=O)(=O)C3CCN(C)CC3)cc2)c2nncn12 [Example 153, N-(4-fluoro-2-methoxybenzyl)-8-(4-((1-methylpiperidin-4-yl)sulfonyl)phenyl)-[1,2,4]triazolo[4,3-a] pyridin-5-amine]
788 | 1350 |  |  | COc1cc(CNc2ccc(-c3ccc(CN(C)C)cc3)c3nncn23)ccc1F [Example 156, 8-(4-((dimethylamino)methyl)phenyl)-N-(4-fluoro-3-methoxybenzyl)-[1,2,4] triazolo[4,3-a]pyridin-5-amine]
1100 | 839 |  |  | COc1cc(F)cc(CNc2ccc(-c3ccc(CN(C)C)cc3)c3nncn23)c1 [Example 171, 8-(4-((dimethylamino)methyl)phenyl)-N-(3-fluoro-5-methoxybenzyl)-[1,2,4]triazolo[4,3-a]pyridin-5-amine]
 |  | 996 | 479 | COc1ccccc1-c1ccc(NCc2c(F)cccc2OC)n2cnnc12 [Example 191, N-(2-fluoro-6-methoxybenzyl)-8-(2-methoxyphenyl)-[1,2,4]triazolo[4,3-a] pyridin-5-amine]
 |  | 704 | 283 | COc1cccc(F)c1CNc1ccc(-c2ccccc2C(F)(F)F)c2nncn12 [Example 193, N-(2-fluoro-6-methoxybenzyl)-8-(2-(trifluoromethyl)phenyl)-[1,2,4]triazolo[4,3-a]pyridin-5-amine]
 |  | 161 | 414 | COc1cccc(F)c1CNc1ccc(-c2cncc(C(C)O)c2)c2nncn12 (stereo not shown) [Example 197, 1-(5-(5-((2-fluoro-6-methoxybenzyl)amino)-[1,2,4]triazolo[4,3-a]pyridin-8-yl)pyridin-3-yl)ethanol]

The remaining lines, values behind:

Structure (SMILES) | IC50 [1, 2] [nM] | IC50 (EED (1-441)-His protein; [3]) [nM] | IC50 [1, 4] [nM] | IC50 (EED (1-441)-His protein; [5]) [nM]
COc1ccc(F)c(CNc2ccc(-c3ccc(S(C)(=O)=O)cc3)c3nncn23)c1 [Example 120, N-(2-fluoro-5-methoxybenzyl)-8-(4-(methylsulfonyl)phenyl)-[1,2,4]triazolo[4,3-a]pyridin-5-amine] | 190 | 244 |  | 
COc1ccc(F)c(CNc2ccc(-c3cccnc3)c3nncn23)c1 [Example 121, N-(2-fluoro-5-methoxybenzyl)-8-(pyridin-3-yl)-[1,2,4]triazolo[4,3-a]pyridin-5-amine] | 299 | 680 |  | 
COc1ccc(F)c(CNc2ccc(-c3ccc(S(C)(=O)=O)nc3)c3nncn23)c1 [Example 122, N-(2-fluoro-5-methoxybenzyl)-8-(6-(methylsulfonyl)pyridin-3-yl)-[1,2,4]triazolo[4,3-a] pyridin-5-amine] | 138 | 313 |  | 
COc1cccc(F)c1CNc1ccc(-c2cnn(C)c2)c2nncn12 [Example 125, N-(2-fluoro-6-methoxybenzyl)-8-(1-methyl-1H-pyrazol-4-yl)-[1,2,4] triazolo[4,3-a]pyridin-5-amine] | 173 | 153 |  | 
COc1cc(F)ccc1CNc1ccc(-c2ccc(NS(C)(=O)=O)c(F)c2)c2nncn12 [Example 129, N-(2-fluoro-4-(5-((4-fluoro-2-methoxybenzyl)amino)-[1,2,4]triazolo[4,3-a]pyridin-8-yl)phenyl)methane sulfonamide] | 854 | 381 |  | 
COc1cc(F)ccc1CNc1ccc(-c2ccc(S(C)(=O)=O)nc2)c2nncn12 [Example 134, N-(4-fluoro-2-methoxybenzyl)-8-(6-(methylsulfonyl)pyridin-3-yl)-[1,2,4]triazolo[4,3-a] pyridin-5-amine] | 538 | 177 |  | 
COc1ccc(F)cc1CNc1ccc(-c2ccc(S(=O)(=O)C3CCN(C)CC3)cc2)c2nncn12 [Example 135, N-(5-fluoro-2-methoxybenzyl)-8-(4-((1-methylpiperidin-4-yl)sulfonyl)phenyl)-[1,2,4]triazolo[4,3-a] pyridin-5-amine] | 279 | 444 |  | 
COc1c(F)cccc1CNc1ccc(-c2ccc(S(C)(=O)=O)nc2)c2nncn12 [Example 136, N-(3-fluoro-2-methoxybenzyl)-8-(6-(methylsulfonyl)pyridin-3-yl)-[1,2,4]triazolo[4,3-a] pyridin-5-amine] | 11400 | 2880 |  | 
COc1c(F)cccc1CNc1ccc(-c2ccncc2)c2nncn12 [Example 137, N-(3-fluoro-2-methoxybenzyl)-8-(pyridin-4-yl)-[1,2,4]triazolo[4,3-a]pyridin-5-amine] | 733 | 344 |  | 
COc1c(F)cccc1CNc1ccc(-c2ccc(S(=O)(=O)C3CCN(C)CC3)cc2)c2nncn12 [Example 138, N-(3-fluoro-2-methoxybenzyl)-8-(4-((1-methylpiperidin-4-yl)sulfonyl)phenyl)-[1,2,4] triazolo[4,3-a]pyridin-5-amine] | 2900 | 1270 |  | 
COc1cccc(F)c1CNc1ccc(-c2cnc(N(C)C)nc2)c2nncn12 [Example 141, 8-(2-(dimethylamino)pyrimidin-5-yl)-N-(2-fluoro-6-methoxybenzyl)-[1,2,4] triazolo[4,3-a]pyridin-5-amine] | 761 | 118 |  | 
COc1c(F)cccc1CNc1ccc(-c2cccnc2)c2nncn12 [Example 144, N-(3-fluoro-2-methoxybenzyl)-8-(pyridin-3-yl)-[1,2,4]triazolo[4,3-a]pyridin-5-amine] | 986 | 1270 |  | 
COc1cccc(F)c1CNc1ccc(-c2cnn(CCO)c2)c2nncn12 [Example 145, 2-(4-(5-((2-fluoro-6-methoxybenzyl)amino)-[1,2,4]triazolo[4,3-a]pyridin-8-yl)-1H-pyrazol-1-yl)ethanol] | 118 | 125 |  | 
